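Exposure lasted 48 hours, with cells grown in 96-well plates and compounds tested at five concentrations. The concentration for 50% growth inhibition is given as GI50.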 Calls of active or inactive are those of the source. Rule as the data show it: active = GI50 up to about 1.1 µM and inactive = higher.
Columns and labels:
Assay in all cases: NCI-60 cell line screen, 48 h
786-0 = test system: 786-0
A498 = test system: A498
A549 = test system: A549
ACHN = test system: ACHN
HOP-62 = test system: HOP-62
IGROV-1 = test system: IGROV-1
M14 = test system: M14
Malme-3M = test system: Malme-3M
NCI-H460 = test system: NCI-H460
NCI-H522 = test system: NCI-H522
RPMI-8226 = test system: RPMI-8226
SK-OV-3 = test system: SK-OV-3
SNB-75 = test system: SNB-75
TK-10 = test system: TK-10
UACC-257 = test system: UACC-257
UO-31 = test system: UO-31
SR = test system: SR

Measured: GI50

COc1c(C2=NC(C(C)C)CO2)ccc2ccccc12 (stereo not given)
inactive: 786-0 45.9 µM | A498 27.3 µM | A549 32.7 µM | ACHN 42.6 µM | HOP-62 47.8 µM | IGROV-1 71 µM | M14 63.5 µM | Malme-3M 35.8 µM | NCI-H460 9.25 µM | NCI-H522 28.2 µM | RPMI-8226 22.6 µM | SK-OV-3 > 100 µM | SNB-75 27.6 µM | TK-10 88.3 µM | UACC-257 34.2 µM | UO-31 31.4 µM

CC(C)[C@@H]1C=C(c2ccccc2)c2ccccc2C1C(C#N)(C#N)C(C)C (stereo not given in full)
inactive: 786-0 > 100 µM | A498 > 100 µM | A549 79.4 µM | ACHN > 100 µM | HOP-62 > 100 µM | IGROV-1 > 100 µM | M14 > 100 µM | Malme-3M > 100 µM | NCI-H460 > 100 µM | RPMI-8226 19 µM | SK-OV-3 > 100 µM | SNB-75 > 100 µM | SR 46.3 µM | TK-10 > 100 µM | UACC-257 54.5 µM | UO-31 > 100 µM

Cc1ccc(Nc2nc3c(s2)C(=O)c2ccccc2C3=O)cc1
inactive: 786-0 1.88 µM | A498 16.4 µM | A549 2.16 µM | ACHN 1.75 µM | HOP-62 7.16 µM | IGROV-1 1.64 µM | M14 1.78 µM | Malme-3M 1.92 µM | NCI-H460 1.94 µM | NCI-H522 1.8 µM | RPMI-8226 1.23 µM | SK-OV-3 24.9 µM | SNB-75 2.14 µM | TK-10 7.26 µM | UACC-257 1.75 µM | UO-31 2.03 µM

Cc1nc2ccccc2c(=O)n1/N=C(\N=N\c1cc(Cl)ccc1Cl)c1cccc(-c2ccco2)c1
inactive: 786-0 > 100 µM | A498 > 100 µM | A549 > 100 µM | ACHN 73.6 µM | HOP-62 > 100 µM | IGROV-1 61.4 µM | M14 > 100 µM | Malme-3M > 100 µM | NCI-H460 > 100 µM | RPMI-8226 42.8 µM | SK-OV-3 > 100 µM | SNB-75 > 100 µM | TK-10 > 100 µM | UACC-257 > 100 µM | UO-31 37.7 µM

CC(=O)C1C(=O)C(=O)N(CCN2C(=O)C(=O)C(C(C)=O)C2=O)C1=O (stereo not given)
inactive: 786-0 > 100 µM | A498 > 100 µM | ACHN > 100 µM | HOP-62 > 100 µM | IGROV-1 > 100 µM | M14 > 100 µM | Malme-3M > 100 µM | NCI-H460 > 100 µM | NCI-H522 > 100 µM | RPMI-8226 > 100 µM | SK-OV-3 > 100 µM | SNB-75 > 100 µM | TK-10 > 100 µM | UACC-257 > 100 µM | UO-31 > 100 µM

CCc1c(OC(C)=O)c2c(NC3OC(COC(C)=O)C(OC(C)=O)C(OC(C)=O)C3OC(C)=O)nc(OC)nc2oc1=O (stereo not given)
inactive: 786-0 > 100 µM | A498 > 100 µM | A549 > 100 µM | ACHN > 100 µM | HOP-62 > 100 µM | IGROV-1 > 100 µM | M14 > 100 µM | Malme-3M > 100 µM | NCI-H460 > 100 µM | RPMI-8226 > 100 µM | SK-OV-3 > 100 µM | SNB-75 > 100 µM | TK-10 > 100 µM | UACC-257 > 100 µM | UO-31 > 100 µM

CC(=O)OC12CCCCC1C1(CCCC1)NC2=O (stereo not given)
inactive: 786-0 > 100 µM | A498 > 100 µM | A549 > 100 µM | ACHN > 100 µM | HOP-62 > 100 µM | IGROV-1 > 100 µM | M14 > 100 µM | Malme-3M > 100 µM | NCI-H460 > 100 µM | RPMI-8226 > 100 µM | SK-OV-3 > 100 µM | SNB-75 > 100 µM | SR > 100 µM | TK-10 > 100 µM | UACC-257 > 100 µM | UO-31 > 100 µM

CC(C)N(C(=O)C12C3C4C5C3C1(C(=O)O)C5C42)C(C)C (stereo not given)
inactive: 786-0 > 100 µM | A498 > 100 µM | A549 > 100 µM | ACHN > 100 µM | HOP-62 > 100 µM | IGROV-1 > 100 µM | M14 > 100 µM | Malme-3M > 100 µM | NCI-H460 > 100 µM | NCI-H522 > 100 µM | RPMI-8226 > 100 µM | SK-OV-3 > 100 µM | SNB-75 61.2 µM | TK-10 > 100 µM | UACC-257 > 100 µM | UO-31 > 100 µM

Cc1ccccc1-n1c2nc(=O)n(C)c(=O)c-2nc2ccccc21
inactive: 786-0 15.8 µM | A498 31.8 µM | A549 13.2 µM | ACHN 8.39 µM | HOP-62 38.5 µM | IGROV-1 19.2 µM | M14 11 µM | Malme-3M 5.58 µM | NCI-H460 9.55 µM | NCI-H522 14.9 µM | RPMI-8226 16.3 µM | SK-OV-3 36.9 µM | SNB-75 20.1 µM | TK-10 12.1 µM | UACC-257 8.73 µM | UO-31 29.1 µM

O=C1[C@H]2ON(c3ccccc3)C(c3ccccc3)[C@H]2C(=O)N1c1ccc(Cc2ccc(N3C(=O)[C@@H]4ON(c5ccccc5)C(c5ccccc5)[C@@H]4C3=O)cc2)cc1 (stereo not given in full)
inactive: 786-0 > 100 µM | A498 > 100 µM | A549 > 100 µM | ACHN > 100 µM | HOP-62 > 100 µM | IGROV-1 > 100 µM | M14 > 100 µM | Malme-3M > 100 µM | NCI-H460 > 100 µM | RPMI-8226 > 100 µM | SK-OV-3 > 100 µM | SNB-75 > 100 µM | UACC-257 > 100 µM | UO-31 > 100 µM

COc1cccc(N2C(=O)[C@H]3[C@H]4CC(C(C)(C)C)CC[C@H]4c4c([nH]c5ccccc45)[C@H]3C2=O)c1 (stereo not given in full)
inactive: 786-0 16.6 µM | A549 15.3 µM | HOP-62 17.7 µM | IGROV-1 17.1 µM | M14 15.1 µM | Malme-3M 20.6 µM | NCI-H522 19.4 µM | RPMI-8226 15.4 µM | SK-OV-3 20.8 µM | SNB-75 15.3 µM | TK-10 15.2 µM | UACC-257 20.6 µM | UO-31 17.6 µM

COc1ccc(CC2NCCc3c2[nH]c2ccccc32)cc1 (stereo not given)
inactive: 786-0 > 100 µM | A498 > 100 µM | A549 > 100 µM | ACHN 66.8 µM | HOP-62 > 100 µM | IGROV-1 83 µM | M14 41.6 µM | NCI-H460 35.6 µM | RPMI-8226 30.4 µM | SK-OV-3 > 100 µM | SNB-75 39.1 µM | TK-10 > 100 µM | UO-31 41.5 µM

CC1CCC2(OCCO2)[C@]2(C)CC(O)C(=O)C=C12 (stereo not given in full)
inactive: 786-0 > 100 µM | A549 > 100 µM | ACHN > 100 µM | IGROV-1 > 100 µM | M14 > 100 µM | Malme-3M > 100 µM | NCI-H460 > 100 µM | NCI-H522 > 100 µM | RPMI-8226 > 100 µM | SK-OV-3 > 100 µM | SR > 100 µM | TK-10 > 100 µM | UACC-257 > 100 µM | UO-31 > 100 µM

Reference: ChEMBL document CHEMBL1201862, “PubChem BioAssay data set” (2004)
